The values that follow come from US11471458B2, “Diacylglycerol acyl transferase 2 inhibitor” (Pfizer Inc., priority 2019, dated 2022).

The nature of data set [1]: High throughput determination of intrinsic clearance in human hepatocytes. The class given is in vitro ADME. The following applies: human, pooled cryopreserved human hepatocytes (10 donors), high throughput human hepatocyte assay; 0.5 million cells/mL, 1 μM test compound, 37° C.; mean +/− Std Dev; read-out: CLint (μL/min/10^6 cells) (+/− Std Dev). The method, then: The incubation was carried out at 37° C. […] The samples were centrifuged (Eppendorf, Hauppauge, N.Y.) at 3000 rpm for 5 min at 4° C.

Data set [2] in a line: Intrinsic clearance in human liver microsomes. As to conditions: human, pooled human liver microsomes (50 donors), pH 7.4, human liver microsome assay; 1 μM test compound, 0.806 mg/mL protein, NADPH, pH 7.4, 37° C.; mean +/− STD Dev; read-out: CLint (μL/min/mg) (+/− STD Dev). In kind it is in vitro ADME. Here is the method:
The incubations were conducted at 37° C. […] (Sorvall RC 3C Plus, Thermo Scientific, Waltham, Mass.).

Data set [3] can be described thus: Intrinsic clearance in human hepatocytes (relay method). The class given is in vitro ADME. As to conditions: human, cryopreserved human hepatocytes (suspension, relay method), 20 h total incubation, mean +/− standard deviation, read-out: CLint (+/− Std Dev), relay hepatocyte assay. The method, then:
For intrinsic clearance (CLint) measurement, hepatocyte relay method was used (Di, L., et al. 2012, Drug Metab. Dispos., 40, 1860-1865 and Di, L., et al. 2013, Drug Metab. Dispos., 41, 2018-2023). Cryopreserved human hepatocytes (Lot DCM from BioreclamationlVT) were used. Upon thawing, the hepatocytes were resuspended in Williams' medium E (custom formula number 91-5233EA; Gibco, Grand Island, N.Y.) supplemented with Hepes and Na2CO3. […] The plates were incubated at 37° C. with 95% air/5% CO2, 75% relative humidity for 4 h at 150 rpm in a humidified incubator. At time 0 and 4 h, 25 μL of hepatocyte suspension was removed from the incubation and added to 50 μL of ice-cold acetonitrile (containing metoprolol, indomethacin, and terfenadine as internal standards) to quench the reaction. The samples were centrifuged (Eppendorf, Hauppauge, N.Y.) at 3000 rpm (1439×g) for 10 min at room temperature, and 50 μL of supernatant was transferred to a clean plate, dried completely, and reconstituted before liquid chromatography/tandem mass spectrometry (LC-MS/MS) analysis. The remaining hepatocyte suspensions in the incubation plate were centrifuged (3000 rpm, 1439×g, 10 min, room temperature). The supernatant of 300 μL was transferred to a clean 24-well plate and stored at −80° C. until the next relay experiment. For the second relay experiment, the supernatant plates were warmed first to room temperature for 30 minutes, then to 37° C. for 30 min, and hepatocytes were added to the samples to give a final cell density of 0.5 million cells/mL. The plates were incubated at 37° C. for 4 h, sampled, and processed as described above. Five relays were performed to give a total incubation time of 20 h, with sampling points at (0, 4, 8, 12, 16 and 20 h). The concentrations of test compound determined at each time point by the LC-MS/MS analysis were used to calculate the intrinsic clearance.

Data set [4] in a line: Determination of pKa (capillary electrophoresis, Analiza, Inc.). The class given is physicochemical. The following applies: mean, read-out: Basic pKa (most basic pKa).
The nature of data set [5]: Thermodynamic solubility in various biorelevant media. In kind it is physicochemical. The following applies: crystalline solid; for solubility at 25 h: 25 °C, thermodynamic from solid. Here is the method: The solubility of active pharmaceutical ingredients is an important characteristic in determining biological performance and ease of formulation during drug development, with high solubility being preferred (Klein, S. 2010, The AAPS Journal, 12, 397-406; Di, L., et al 2012, Drug Disc. Today, 17. 486-495). A test sample of crystalline solid (˜7 mg) was combined in a vial with 1 mL of the relevant buffer solution and the mixture vortexed to combine. If the solid dissolved completely, additional solid was added with vortexing until a saturated solution was obtained. The saturated solution/solid mixture was capped and subjected to temperature cycling as follows: 1 min at 25° C., 8 h at 40° C., 5 h at 15° C. and 12 h at 25° C. The mixture was filtered in a centrifugal filtration device (0.22 μm PVDF filter, MilliporeSigma, Milwaukee, Wis.) at 13,000 rpm and the concentration of the test compound in the filtrate was determined by HPLC/UPLC with reference to a three point standard curve. Phosphate buffered saline (PBS, pH 6.8, 50 mM phosphate buffer, 250 mM NaCl). Simulated gastric fluid (SGN pH 1.2, USP recipe). Fasted state simulated intestinal fluid (FaSSIF, 3 mM sodium taurocholate, 0.75 mM phospholipid from soybean lecithin, 50 mM phosphate buffer, ionic strength adjusted to 250 mM with NaCl, pH 6.8) and fed state simulated intestinal fluid (FeSSIF, 15 mM sodium taurocholate, 3.75 mM phospholipid from soybean lecithin, 144 mM acetic acid, 50 mM phosphate buffer, ionic strength adjusted to 250 mM with NaCl, pH 6.8).

Another data set concerns the target human DGAT2 (hDGAT2) (Homo sapiens (Human), UniProt Q96PD7). As to the kind of experiment: In vitro DGAT2 assay, determination of IC50 values for DGAT2 inhibitors. The class given is biochemical. The following applies: hDGAT2 membrane fraction; geometric mean. Here is the method:
Recombinant baculovirus for the FLAG-tagged hDGAT2 was generated in SF9 insect cells using Bac-to-Bac baculovirus expression system (Invitrogen) according to the manufacturer's protocol. For the expression of hDGAT2, SF9 cells (20 L) grown in Sf900II media were infected with hDGAT2 baculovirus at a multiplicity of infection of 1 in a Wave Bioreactor System 20/50P wave bag (GE Healthcare). After 40 hours of infection, the cells were then harvested by centrifugation at 5,000×g. The cell pellets were washed by resuspending in phosphate buffered saline (PBS) and collected by centrifugation at 5,000×g. The cell paste was flash frozen in liquid N2 and stored at −80° C. until needed. All operations below were at 4° C. unless otherwise noted. The cells were resuspended in lysis buffer (50 mM Tris-HCl, pH 8.0, 250 mM sucrose) including 1 mM ethylenediaminetetraacetic acid (EDTA) and the complete protease inhibitor cocktail (Roche Diagnostics) at a ratio of 3 mL buffer per 1 g cell paste. The cells were lysed by dounce homogenizer. The cell debris was removed by centrifugation at 1,000×g for 20 min, and the supernatant was centrifuged at 100,000×g for 1 hour. The resulting pellet was rinsed three times by filling ultracentrifuge tubes to the top with ice cold PBS before decanting. The washed pellet was resuspended with gentle stirring for 1 hour in lysis buffer containing 8 mM 3-[(3-cholamidopropyl)dimethylammonio]-1-propanesulfonate (CHAPS) at a ratio of 1 mL buffer per 1 g of original cell paste and centrifuged again at 100,000×g for 1 hour. The resulting supernatant was aliquotted, flash frozen in liquid N2, and stored at −80° C. until use.
To 1 μL of compounds dissolved in 100% DMSO and spotted at the bottom of each well, 5 μL of 0.04% bovine serum albumin (BSA) (fatty acid free, Sigma Aldrich) was added and the mixture was incubated at room temperature for 15 minutes. hDGAT2 membrane fractions were diluted in 100 mM Hepes-NaOH, pH 7.4, 20 mM MgCl2 containing 200 nM methyl arachidonyl fluorophosphonate (Cayman Chemical; dried from ethyl acetate stock solution under argon gas and dissolved in DMSO as 5 mM stock). 10 μL of this enzyme working solution was added to the plates and incubation continued for 2 hours at room temperature. […] Plates were centrifuged at 2,000×g for 1 minute in an Allegra 6R Centrifuge (Beckman Coulter) and then were sealed again with fresh covers before reading in a 1450 Microbeta Wallac Trilux Scintillation Counter (Perkin Elmer). DGAT2 activity was measured by quantifying the generated product [^14C]tridecanoylglycerol in the upper organic phase. […]

≈ marks a conversion by molar mass, not a printed value. Structures can show the parent of a compound that is named as a salt.

Usually pKa stands for the pH at which an ionisable group is half protonated. In general, Solubility refers to the dissolved amount per volume that the medium holds. A high value points to a readily soluble substance. As usually defined, the solubility is how much of the substance goes into solution per volume. High values mean a readily soluble substance, low ones a poorly soluble substance. In general, IC50 refers to the concentration at which inhibition is half-maximal. The low end stands for greater potency, the high end for weaker potency.

human DGAT2 (hDGAT2), sequence (Q96PD7 whole entry): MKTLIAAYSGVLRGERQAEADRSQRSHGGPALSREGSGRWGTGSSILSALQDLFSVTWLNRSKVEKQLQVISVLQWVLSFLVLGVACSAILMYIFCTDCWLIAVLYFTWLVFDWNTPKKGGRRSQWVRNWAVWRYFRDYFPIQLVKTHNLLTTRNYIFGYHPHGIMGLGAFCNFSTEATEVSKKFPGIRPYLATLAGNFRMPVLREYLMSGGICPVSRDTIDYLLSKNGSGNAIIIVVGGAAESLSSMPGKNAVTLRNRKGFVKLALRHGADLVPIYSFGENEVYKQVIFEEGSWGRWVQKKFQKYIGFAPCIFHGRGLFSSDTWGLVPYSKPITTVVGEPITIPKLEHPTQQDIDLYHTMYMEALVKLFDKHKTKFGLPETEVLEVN

As for `CCOc1cccnc1Oc1cncc(-c2ncc(C(=O)N[C@H]3CCC(C(F)(F)F)NC3)cn2)c1` (mixture of isomers) [Example 8, rac-2-{5-[(3-ethoxypyridin-2-yl)oxy]pyridin-3-yl}-N-[(3R,6S)-6-(trifluoromethyl)piperidin-3-yl]pyrimidine-5-carboxamide or rac-2-{5-[(3-ethoxypyridin-2-yl)oxy]pyridin-3-yl}-N-[(3R,6R)-6-(trifluoromethyl)piperidin-3-yl]pyrimidine-5-carboxamide], the hepatocyte CLint at 1 μM in data set [1] is 12 µL/min/1e6 cells. Moreover, in data set [2], the microsomal CLint at 1 μM was under 14 µL/min/mg.
Take `CCOc1cccnc1Oc1cncc(-c2ncc(C(=O)NC3(CO)CCOC3)cn2)c1` (single isomer, unassigned) [WO2018033832 Ex. 6a]: the hepatocyte CLint at 1 μM in data set [1] was under 3.8 µL/min/1e6 cells; in data set [3] it was 3.2 µL/min/1e6 cells. For the same compound, the microsomal CLint at 1 μM in data set [2] is 13 µL/min/mg. Also, in data set [4], the pKa came out at 2.3.
Regarding `CCOc1cc(F)cnc1Oc1cncc(-c2ncc(C(=O)N[C@@H]3CNCC[C@@H]3F)cn2)c1` [Example 1, 2-{5-[(3-Ethoxy-5-fluoropyridin-2-yl)oxy]pyridin-3-yl}-N-[(3R,4S)-4-fluoropiperidin-3-yl]pyrimidine-5-carboxamide, bis(trifluoroacetate) Salt], the hepatocyte CLint at 1 μM in data set [1] was under 2.7 µL/min/1e6 cells. The microsomal CLint at 1 μM in data set [2] is under 7 µL/min/mg. Besides, the pKa in data set [4] was 7.7.
In data set [5] (SGN pH 1.2 (simulated gastric fluid)), `CCOc1cccnc1Oc1cncc(-c2ncc(C(=O)N[C@H]3CCOC3)cn2)c1` [WO2018033832 Ex. 1, Form 1] displayed a Solubility of 78 µg/mL (≈ 191 µM). For the same compound, the solubility at 25 h in data set [5] (fasted state simulated intestinal fluid (FaSSIF), pH 6.8, fassif, FaSSIF pH 6.8) is 69 µg/mL (≈ 169 µM); in data set [5] (phosphate buffered saline, pH 6.8, aqueous buffer, PBS, pH 6.8), 43 µg/mL (≈ 106 µM).
For `CCOc1cccnc1Oc1cncc(-c2ncc(C(=O)N[C@H]3CCOC3)cn2)c1` [WO2018033832 Ex. 1, Form 2], the Solubility in data set [5] (FaSSIF pH 6.8) was 93 µg/mL (≈ 228 µM); in data set [5] (PBS, pH 6.8) it was 60 µg/mL (≈ 147 µM).
Regarding `CCOc1cccnc1Oc1cncc(-c2ncc(C(=O)N[C@H]3CCOC3)cn2)c1` [WO2018033832 Ex. 1], the hepatocyte CLint at 1 μM in data set [1] was under 3.8 µL/min/1e6 cells; in data set [3], 3.9 µL/min/1e6 cells. Besides, the microsomal CLint at 1 μM in data set [2] turned out to be 11 µL/min/mg. Besides, the pKa in data set [4] amounted to 2.4.
For `CCOc1cccnc1Oc1cncc(-c2ncc(C(=O)N[C@@H]3CCOC3)cn2)c1` [WO2018033832 Ex. 2], in that order: 4.7 µL/min/1e6 cells, 4.9 µL/min/1e6 cells, 17 µL/min/mg and 2.5.
Turning to `CCOc1cccnc1Oc1cncc(-c2ncc(C(=O)NC3(C)CCS(=O)(=O)C3)cn2)c1` (stereo not shown) [WO2018033832 Ex. 3.1], the hepatocyte CLint at 1 μM in data set [1] amounted to 9.3 µL/min/1e6 cells. In addition, in data set [2], the microsomal CLint at 1 μM is 30 µL/min/mg. The same compound showed a 50% inhibitory concentration (IC50) against human DGAT2 (hDGAT2) of 13 nM.
For `CCOc1cccnc1Oc1cncc(-c2ncc(C(=O)NC3CCS(=O)(=O)C3)cn2)c1` (stereo not shown) [WO2018033832 Ex. 3.3] the same measures were 5.1 µL/min/1e6 cells, under 8 µL/min/mg and 200 nM.
For `CCOc1cc(F)cnc1Oc1cncc(-c2ncc(C(=O)N[C@H]3CCOC3)cn2)c1` [WO2018033832 Ex. 8], the hepatocyte CLint at 1 μM in data set [1] turned out to be 9.3 µL/min/1e6 cells. In addition, the microsomal CLint at 1 μM in data set [2] is under 9.6 µL/min/mg. Besides, the 50% inhibitory concentration (IC50) on human DGAT2 (hDGAT2) was 3.3 nM.
